# From US20110223157A1, “METHODS FOR THE TREATMENT OF NON-HODGKIN'S LYMPHOMAS USING LENALIDOMIDE, AND GENE AND PROTEIN BIOMARKERS AS A PREDICTOR” (priority 2010, published 2011)
# Read-outs that look alike come from different tables or passages of the source.
# Assays:
# Assay type in all cases: cell-based
# NFκB p50 = NFκB p50 activity, Active Motif transcription factor assay on nuclear extracts of treated DLBCL cells; details: 2 days; for inhibition at 1 µM / inhibition at 10 µM: read-out: P50 Inhibition (%) mean ± SD
# Description: (§1) DLBCL cells were treated with lenalidomide or an IKK1/2 dual inhibitor (used as a positive inhibitor control) for 2 days. NFκB activity was examined with Active Motif transcription factor assay using nuclear extracts from cells following treatment.
# DLBCL cell lines = assay: Proliferation of DLBCL cells in vitro, 3H-thymidine incorporation
# Description: A panel of DLBCL cell lines of various cytogenetic features was tested for their sensitivity to the antiproliferative activity of lenalidomide. Cells were treated with lenalidomide for 5 days at 37° C.; proliferation of cells was determined using ^3H-thymidine incorporation method. Results of 3 independent experiments are shown (mean±SD). […] ABC-subtype cells appear more sensitive to the antiproliferative effect than other subtype cells including GCB-DLBCL and PMBL cells.
# NFκB p65 = NFκB p65 activity, Active Motif transcription factor assay on nuclear extracts of treated DLBCL cells; details: 2 days; for inhibition at 1 µM / inhibition at 10 µM: read-out: P65 Inhibition (%) mean ± SD
# Description: as §1
# [1] = 48 h, KARPS-1160p cells (PBML), 1 μM
# [2] = Homo sapiens, OCI-Ly3, 48 h, OCI-Ly3 cells, 1 μM
# [3] = Homo sapiens, OCI-Ly3, 48 h, OCI-Ly3 cells
# [4] = Homo sapiens, OCI-Ly10, 48 h, OCI-Ly10 cells, 1 μM
# [5] = Homo sapiens, OCI-Ly10, 48 h, OCI-Ly10 cells
# [6] = Homo sapiens, TMD8, 48 h, TMD8 cells, 1 μM
# [7] = Homo sapiens, TMD8, 48 h, TMD8 cells
smiles,measurement,setting,value
"Nc1cccc2c1CN(C1CCC(=O)NC1=O)C2=O (stereo not drawn) [lenalidomide, 3-(4-amino-1-oxo-1,3-dihydro-isoindol-2-yl)-piperidine-2,6-dione]",Effect on NFκB p50 activity,"NFκB p50; 1 μM, U2932 cells, p<0.05",significantly inhibits
same,inhibition at 1 µM,NFκB p50; [1],14.5 ± 0.95%
same,inhibition at 10 µM,"NFκB p50; 48 h, KARPS-1160p cells (PBML)",16.4 ± 0.28%
same,inhibition at 1 µM,"NFκB p50; 48 h, RIVA cells, 1 μM",11.1 ± 11.7%
same,inhibition at 10 µM,"NFκB p50; 48 h, RIVA cells",28.6 ± 21%
same,inhibition at 1 µM,"NFκB p50; 48 h, U2392 cells, 1 μM",32.5 ± 14.3%
same,inhibition at 1 µM,NFκB p50; [2],-10.3 ± 19.7%
same,inhibition at 10 µM,NFκB p50; [3],-9.5 ± 19.1%
same,inhibition at 1 µM,NFκB p50; [4],22.7 ± 18.8%
same,inhibition at 10 µM,NFκB p50; [5],22.6 ± 14.1%
same,inhibition at 1 µM,NFκB p50; [6],14.4 ± 16.4%
same,inhibition at 10 µM,NFκB p50; [7],48.5 ± 40.2%
same,Effect on proliferation,"DLBCL cell lines; ABC cell lines U2392, RIVA, TMD8 and OCI-Ly10",significantly inhibits
same,Starting concentration of significant (p<0.05) inhibition of proliferation,"DLBCL cell lines; several DLBCL lines, particularly ABC-subtype Riva, U2932, TMD8, OCI-Ly10, 5 days at 37° C.",0.1 to 1 µM
same,Effect on NFκB p65 activity,"NFκB p65; 1 μM, U2932 cells, p<0.001",significantly inhibits
same,inhibition at 1 µM,NFκB p65; [1],5.9 ± 0.49%
same,inhibition at 10 µM,"NFκB p65; 48 h, KARPS-1160p cells (PBML)",5.4 ± 0.35%
same,inhibition at 1 µM,"NFκB p65; 48 h, RIVA cells, 1 μM",19.3 ± 15.6%
same,inhibition at 10 µM,"NFκB p65; 48 h, RIVA cells",41.7 ± 26.8%
same,inhibition at 1 µM,"NFκB p65; 48 h, U2392 cells, 1 μM",40 ± 3.7%
same,inhibition at 10 µM,"NFκB p65; 48 h, U2392 cells",47.9 ± 6.2%
same,inhibition at 1 µM,NFκB p65; [2],-17.4 ± 13.4%
same,inhibition at 10 µM,NFκB p65; [3],-15.8 ± 15%
same,inhibition at 1 µM,NFκB p65; [4],27.6 ± 20.7%
same,inhibition at 10 µM,NFκB p65; [5],22 ± 12.2%
same,inhibition at 1 µM,NFκB p65; [6],14.1 ± 9%
same,inhibition at 10 µM,NFκB p65; [7],49.7 ± 32.8%
